How the values were obtained:
[1] = Liver microsomal metabolism stability test, human; format: in vitro ADME; conditions: for half-life at 1 μM: human liver microsomes 0.5 mg/mL, compound 1 μM, NADPH/UDPGA; for Remaining rate: human liver microsomes, 60 min
Procedure: (§1) The purpose of this experiment was to detect the stability of the example compounds in liver microsomes of rats, dogs and humans.
(§2) • Formulation of working solution of compounds: compound stock solution was added to phosphate buffer to a final concentration of 20 μM.
(§3) Dilution was performed with 100 mM phosphate buffer to a final concentration of 0.625 mg/mL.
(§4) NADPH (reduced nicotinamide adenine dinucleotide phosphate) and UDPGA (uridine diphosphate glucuronic acid) were weighed, 100 mM phosphate buffer was added, and the final concentration was 20 mM.
(§5) 1 mg of Alamethicin was weighed, and 200 μL of DMSO was added to formulate a 5 mg/mL solution. Then dilution was performed with phosphate buffer to a final concentration of 50 μg/mL.
(§6) Stop solution: the stop solution contains 100 ng/mL labetalol hydrochloride and 400 ng/mL tolbutamide and cold acetonitrile as internal standard.
(§7) 400 μL of formulated liver microsomes, 25 μL of compound working solution and 25 μL of Alamethicin were added in sequence to the 96-well plate, and pre-incubated at 37° C. for 10 min. Then 50 μL of formulated NADPH/UDPGA was added to start the reaction and the mixture was incubated at 37° C. The total volume of the reaction system was 500 μL. The final contents of each component are as follows:
(§8) • Instrument: Shimadzu LC-30 AD; • Chromatographic column: XBridge® C18 (50*4.6 mm, 5 μm particle size); • Mobile phase: A: 0.1% formic acid solution, B: methanol Wash gradient: 0.2-1.6 min 5% A to 95% A, 3.0-3.1 min 95% A to 5% A Run time: 4.0 min.
(§9) • Instrument: API5500 liquid chromatography mass spectrometer, AB Sciex; • Ion source: electrospray ionization source (ESI); • Drying gas: N2, temperature 500° C.; • Electrospray voltage: 5000 V; • Detection mode: positive ion detection; • Scanning mode: reaction monitoring (MRM) mode.

[2] = Liver microsomal metabolism stability test, dog; format: in vitro ADME; conditions: for half-life at 1 μM: dog liver microsomes 0.5 mg/mL, compound 1 μM, NADPH/UDPGA; for Remaining rate: dog liver microsomes, 60 min
Procedure: as §1, §2, §3, §4, §5, §6, §7, §8, §9

[3] = molecular target: T1, CYP450 enzyme subtype 2D6 (Homo sapiens, UniProt P10635); assay: CYP enzyme single point inhibition test, 2D6; format: in vitro ADME; conditions: human liver microsomes, single point method
T1 construct: Human liver microsome incubation system was used; from tissue; host or cells: human liver microsomes
Procedure: (§10) Human liver microsome incubation system was used, and the single point method was used to quickly predict the inhibition on CYP450 enzyme subtypes (1A2, 2C19, 2D6, 3A4-M, and 3A4-T) by compounds.
(§11) For 2.5 mM NADPH, 4.165 mg of NADPH (reduced nicotinamide adenine dinucleotide phosphate) was weighed and 100 mM phosphate buffer was added to 2 mL. For 0.25 mg/mL microsomes, 50 μL of 20 mg/mL microsomes was added to 4 mL of 100 mM phosphate buffer and mixed evenly.
(§12) The test example compound was weighed, diluted to 10 mM with DMSO, and then diluted to 100 μM with 100 mM phosphate buffer.
(§13) • 1. 40 μL of liver microsomes, 10 μL of substrate, and 10 μL of test compound were added in a 96-well plate and the mixture was pre-incubated for 3 min. • 2. 40 μL of NADPH was added. • 3. At 20 min, 300 μL of acetonitrile stop solution containing internal standard was added. • 4. The mixture was centrifuged and the sample was loaded.

[4] = molecular target: T2, CYP450 enzyme subtype 1A2 (Homo sapiens, UniProt P05177); assay: CYP enzyme single point inhibition test, 1A2; format: in vitro ADME; conditions: human liver microsomes, single point method
T2 construct: Human liver microsome incubation system was used; from tissue; host or cells: human liver microsomes
T2 sequence (P05177 1-516): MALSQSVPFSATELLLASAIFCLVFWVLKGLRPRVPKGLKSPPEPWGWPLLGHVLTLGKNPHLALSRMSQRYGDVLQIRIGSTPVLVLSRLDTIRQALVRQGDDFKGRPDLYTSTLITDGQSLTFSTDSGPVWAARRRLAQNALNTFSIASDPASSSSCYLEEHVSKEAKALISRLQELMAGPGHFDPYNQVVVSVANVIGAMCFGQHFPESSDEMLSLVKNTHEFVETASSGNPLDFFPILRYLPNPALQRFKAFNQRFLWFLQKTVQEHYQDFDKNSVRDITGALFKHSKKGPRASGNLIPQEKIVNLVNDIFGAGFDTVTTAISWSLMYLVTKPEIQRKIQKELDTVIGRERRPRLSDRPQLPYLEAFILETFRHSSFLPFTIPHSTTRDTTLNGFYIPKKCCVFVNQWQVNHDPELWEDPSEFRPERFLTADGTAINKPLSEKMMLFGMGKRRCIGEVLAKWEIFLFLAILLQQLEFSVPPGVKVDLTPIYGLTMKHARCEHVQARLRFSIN
Procedure: as §10, §11, §12, §13

[5] = Rat pharmacokinetic evaluation test, oral administration; format: in vivo; conditions: male, SD rats, p.o. 5 mg/kg, plasma; for MRT inf: read-out: MRT0-∞
Procedure: SD rats were used as test animals to study the pharmacokinetic behavior of the compounds of the present invention in the rat body (plasma) after oral administration at a dose of 5 mg/kg.
3 SD rats/group, male, from Shanghai Jiesijie Experimental Animal Co., Ltd., animal production license number (SCXK (Shanghai) 2013-0006 N0.311620400001794).
• 0.5% CMC-Na (1% Tween80) was dissolved with ultrasound, and formulated into a clear solution or homogeneous suspension.
• p.o. respectively after the rats were fasted overnight; • the p.o. dose was 5 mg/kg and the administration volume was 10 mL/kg.
After oral administration of rats, 0.2 mL of blood was collected from the jugular vein at 0.25 h, 0.5 h, 1.0 h, 2.0 h, and 4.0 h, placed in an EDTA-2K test tube, centrifuged at 6000 rpm for 6 min at 4° C. to separate plasma which was stored at −80° C.; the rats can eat 4 h after administration.
• 1) 160 μL of acetonitrile was added to 40 μL of plasma sample for precipitation, mixed and centrifuged at 3500×g for 5 to 20 min. • 2) the treated supernatant solution was taken and subjected to LC/MS/MS to analyze the concentrations of the test compounds. LC/MS/MS analysis instrument: AB Sciex API 4000 Qtrap.
• Liquid phase conditions: Shimadzu LC-20AD pump • chromatographic column: AgilentZORBAX XDB-C18 (50×2.1 mm, 3.5 μm) mobile phase: liquid A was 0.1% aqueous formic acid solution, liquid B was acetonitrile • flow rate: 0.4 mL/min • Elution time: 0-4.0 min, the eluent was as follows:
The main pharmacokinetic parameters were calculated using WinNonlin 6.1.

T1 sequence (P10635 whole entry): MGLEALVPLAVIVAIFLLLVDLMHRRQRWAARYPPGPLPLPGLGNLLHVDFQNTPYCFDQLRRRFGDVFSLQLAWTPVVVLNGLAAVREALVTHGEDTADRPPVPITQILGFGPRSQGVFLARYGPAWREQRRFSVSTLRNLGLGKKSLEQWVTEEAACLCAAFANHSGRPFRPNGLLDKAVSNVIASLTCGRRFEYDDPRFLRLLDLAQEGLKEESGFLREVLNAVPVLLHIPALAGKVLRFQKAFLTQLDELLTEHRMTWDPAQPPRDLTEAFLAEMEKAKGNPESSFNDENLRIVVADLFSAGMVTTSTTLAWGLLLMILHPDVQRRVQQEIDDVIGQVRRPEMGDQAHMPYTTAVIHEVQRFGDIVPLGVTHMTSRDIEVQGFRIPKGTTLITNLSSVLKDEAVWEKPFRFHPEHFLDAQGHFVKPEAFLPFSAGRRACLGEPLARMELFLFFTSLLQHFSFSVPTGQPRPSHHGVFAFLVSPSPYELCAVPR

| SMILES | half-life at 1 μM [1] [min] | Remaining rate [1] [%] | half-life at 1 μM [2] [min] | Remaining rate [2] [%] | IC50 [3] [µM] | IC50 [4] [µM] | AUC(0-inf) [5] [ng·h/mL] | Cmax [5] [ng/mL] | Tmax [5] [min] | MRT inf [5] [h] |
| --- | --- | --- | --- | --- | --- | --- | --- | --- | --- | --- |
| CCCCC1=NC2(CCCC2)C(=O)N1Cc1ccc(-c2ccccc2S(=O)(=O)Nc2noc(C)c2Br)c(COCC)c1 [Example 46, 2-[4-[(2-butyl-4-oxo-1,3-diazaspiro[4.4]non-1-en-3-yl)methyl]-2-(ethoxymethyl)phenyl]-N-(4-bromo-5-methyl-isoxazol-3-yl)benzsulfamide] | 28.9 | 23.8 | 22.2 | 15.4 | > 100 | > 100 | 13800 | 2300 | 30 | 6.6 |
| [2H]C([2H])(OCC)c1cc(CN2C(=O)C3(CCCC3)N=C2CCCC)ccc1-c1ccccc1S(=O)(=O)Nc1noc(C)c1Cl [Example 49, 4′-((2-butyl-4-oxo-1,3-diazospiro[4.4]non-1-en-3-yl)methyl)-N-(4-chloro-5-methylisoxazol-3-yl)-2′-(ethoxydeuteriummethyl)-[1,1′-biphenyl]-2-sulfonamide] | 26.2 | 30.7 | 29.5 | 23.9 |  |  |  |  |  |  |
| CCCCC1=NC2(CC3CC3C2)C(=O)N1Cc1ccc(-c2ccccc2S(=O)(=O)Nc2noc(C)c2C)c(COCC)c1 (stereo not drawn) [Example 87, 4′-((2′-butyl-5′-oxaspiro[bicyclo[3.1.0]hexane-3,4′-imidazole]-1′(5′H)-yl)methyl)-N-(4,5-dimethylisoxazol-3-yl)-2′-(ethoxymethyl)-[1,1′-biphenyl]-2-sulfonamide] |  |  |  |  |  |  | 9760 | 2630 | 30 | 3.8 |

— US20240368123A1, “AROMATIC RING-CONTAINING BIOLOGICAL ANTAGONIST, AND PREPARATION METHOD THEREFOR AND USE THEREOF” (SHANGHAI HANSOH BIOMEDICAL CO., LTD., priority 2021, published 2024)
